{"source": "patent US12527886B2", "about": "“Radiopharmaceuticals and composition for thrombus imaging” (THE ASAN FOUNDATION, priority 2020, dated 2026)", "test": "Stability of Tc-99m labeled compound, labeling purity by HPLC", "format": "physicochemical", "procedure": "2 mL of Tc-99m was added dropwise to a lyophilized vial including 0.1 mg of GP-104, 15 μg of SnCl2, and 10 μg of cysteine, the vial was allowed to stand at room temperature for 10 minutes, and the reaction was terminated by adjusting pH to 7 using a NaOH solution. Labeling purity was confirmed to be 93.21% by HPLC (analysis conditions: Luna C18 250×4.6 mm, phosphate buffer:acetonitrile (100:0, 0 to 5 minutes; 80:20, 5 to 10 minutes; 80:20, 17 minutes; 100:0, 17.1 minutes). 100:0. 20 min), 1.0 mL/min, UV=280 nm).\nIn order to confirm the effect of cysteine addition after the reaction, the following experiment was performed: 0.1 mg of GP-104 was dissolved in water for injection, the pH was adjusted to about 3.5 when 10 μL of SnCl2 (1.5 mg/mL) and 2 mL of Tc-99m were added thereto, and the resulting mixture was allowed to stand at room temperature for 10 minutes. The reaction was terminated by adjusting the pH to 7 using a NaOH solution and 10 μL of cysteine (1.0 mg/mL). Labeling purity was confirmed to be 91.4% using HPLC in the same manner as in Example 2-7.\nAfter 0.1 mg of GP-104 was dissolved in water for injection, pH was adjusted to about 3.5 and the resulting solution was allowed to stand at room temperature for 10 minutes when 10 μL of SnCl2 (1.5 mg/mL), 10 μL of cysteine (1.0 mg/mL) and 2 mL of Tc-99m were added thereto, and the reaction was terminated by adjusting the pH to 7 using a NaOH solution. Labeling purity was confirmed to be 94.84% using HPLC in the same manner as in Example 2-7.\nHCl and NaOH was additionally added dropwise to the solution of Example 2-8 to perform a stability evaluation by adjusting the final pH of the solution to acidic (pH 5.5) and basic (pH 8.5) conditions, and labeling purity was confirmed using HPLC in the same manner as in Example 2-7.\nHCl and NaOH was additionally added dropwise to the solution of Example 2-9 to perform a stability evaluation by adjusting the final pH of the solution to acidic (pH 5.5) and basic (pH 8.5) conditions, and labeling purity was confirmed using HPLC in the same manner as in Example 2-7.\nHCl and NaOH was additionally added dropwise to the solution of Example 2-10 to perform a stability evaluation by adjusting the final pH of the solution to acidic (pH 5.5) and basic (pH 8.5) conditions, and labeling purity was confirmed using HPLC in the same manner as in Example 2-7.\n0.1 mg of GP-105 was dissolved in water for injection, the pH was adjusted to about 3.5 when 10 μL of SnCl2 (1.5 mg/mL) and 2 mL of Tc-99m were added thereto, and the resulting mixture was allowed to stand at room temperature for 10 minutes. The reaction was terminated by adjusting the pH to 7 using a NaOH solution and 10 μL of cysteine (1.0 mg/mL). Labeling purity was confirmed to be 98.1% using HPLC in the same manner as in Example 2-7.\nHCl and NaOH was additionally added dropwise to the solution of Example 2-12 to perform a stability evaluation by adjusting the final pH of the solution to acidic (pH 5.5) and basic (pH 8.5) conditions, and labeling purity was confirmed using HPLC in the same manner as in Example 2-7.\nHCl and NaOH was additionally added dropwise to the solution of Example 2-13 to perform a stability evaluation by adjusting the final pH of the solution to acidic (pH 5.5) and basic (pH 8.5) conditions, and labeling purity was confirmed using HPLC in the same manner as in Example 2-7.\nHCl and NaOH was additionally added dropwise to the solution of Example 2-14 to perform a stability evaluation by adjusting the final pH of the solution to acidic (pH 5.5) and basic (pH 8.5) conditions, and labeling purity was confirmed using HPLC in the same manner as in Example 2-7."}
{"molecule": "O=C(O)C[C@H](NC(=O)[C@@H]1CCCN(C(=O)CCC2CCNCC2)C1)c1cncc(OCCNC(=O)CN2CC(=O)[O][99Tc-]3([O]C(=O)C2)[O]C(=O)CN(CC(=O)NCCOc2cncc([C@H](CC(=O)O)NC(=O)[C@@H]4CCCN(C(=O)CCC5CCNCC5)C4)c2)CC(=O)[O]3)c1", "note": "[[Tc-99m]GP-105]", "values": [{"measurement": "radiochemical purity (HPLC)", "setting": "Ex 4-3, addition of cysteine after reaction, NaOH mixed, 0 hour", "result": 98.06, "unit": "%"}, {"measurement": "radiochemical purity (HPLC)", "setting": "Ex 4-3, addition of cysteine after reaction, NaOH mixed, 1 hour", "result": 95.17, "unit": "%"}, {"measurement": "radiochemical purity (HPLC)", "setting": "Ex 4-3, addition of cysteine after reaction, NaOH mixed, 2 hours", "result": 94.14, "unit": "%"}, {"measurement": "radiochemical purity (HPLC)", "setting": "Ex 4-3, addition of cysteine after reaction, NaOH mixed, 3 hours", "result": 91.91, "unit": "%"}, {"measurement": "radiochemical purity (HPLC)", "setting": "Ex 4-3, addition of cysteine after reaction, NaOH mixed, 4 hours", "result": 89.00, "unit": "%"}, {"measurement": "radiochemical purity (HPLC)", "setting": "Ex 4-3, addition of cysteine after reaction, NaOH separately, 0 hour", "result": 99.39, "unit": "%"}, {"measurement": "radiochemical purity (HPLC)", "setting": "Ex 4-3, addition of cysteine after reaction, NaOH separately, 1 hour", "result": 99.04, "unit": "%"}, {"measurement": "radiochemical purity (HPLC)", "setting": "Ex 4-3, addition of cysteine after reaction, NaOH separately, 2 hours", "result": 97.02, "unit": "%"}, {"measurement": "radiochemical purity (HPLC)", "setting": "Ex 4-3, addition of cysteine after reaction, NaOH separately, 3 hours", "result": 91.14, "unit": "%"}, {"measurement": "radiochemical purity (HPLC)", "setting": "Ex 4-3, addition of cysteine after reaction, NaOH separately, 4 hours", "result": 66.87, "unit": "%"}, {"measurement": "radiochemical purity (HPLC)", "setting": "solution of Example 2-12 (165 nmol cysteine), pH 5.5, 0 hr", "result": 100, "unit": "%"}, {"measurement": "radiochemical purity (HPLC)", "setting": "solution of Example 2-12 (165 nmol cysteine), pH 5.5, 2 hr", "result": 85.49, "unit": "%"}, {"measurement": "radiochemical purity (HPLC)", "setting": "solution of Example 2-12 (165 nmol cysteine), pH 5.5, 4 hr", "result": 82.11, "unit": "%"}, {"measurement": "radiochemical purity (HPLC)", "setting": "solution of Example 2-12 (165 nmol cysteine), pH 7, 0 hr", "result": 100, "unit": "%"}, {"measurement": "radiochemical purity (HPLC)", "setting": "solution of Example 2-12 (165 nmol cysteine), pH 7, 2 hr", "result": 94.88, "unit": "%"}, {"measurement": "radiochemical purity (HPLC)", "setting": "solution of Example 2-12 (165 nmol cysteine), pH 7, 4 hr", "result": 85.55, "unit": "%"}, {"measurement": "radiochemical purity (HPLC)", "setting": "solution of Example 2-12 (165 nmol cysteine), pH 8.5, 0 hr", "result": 100, "unit": "%"}, {"measurement": "radiochemical purity (HPLC)", "setting": "solution of Example 2-12 (165 nmol cysteine), pH 8.5, 2 hr", "result": 50.64, "unit": "%"}, {"measurement": "radiochemical purity (HPLC)", "setting": "solution of Example 2-12 (165 nmol cysteine), pH 8.5, 4 hr", "result": 23.98, "unit": "%"}, {"measurement": "radiochemical purity (HPLC)", "setting": "solution of Example 2-13 (82.5 nmol cysteine + 82.5 nmol VB1), pH 5.5, 0 hr", "result": 100, "unit": "%"}, {"measurement": "radiochemical purity (HPLC)", "setting": "solution of Example 2-13 (82.5 nmol cysteine + 82.5 nmol VB1), pH 5.5, 2 hr", "result": 100, "unit": "%"}, {"measurement": "radiochemical purity (HPLC)", "setting": "solution of Example 2-13 (82.5 nmol cysteine + 82.5 nmol VB1), pH 5.5, 4 hr", "result": 98.63, "unit": "%"}, {"measurement": "radiochemical purity (HPLC)", "setting": "solution of Example 2-13 (82.5 nmol cysteine + 82.5 nmol VB1), pH 7, 0 hr", "result": 100, "unit": "%"}, {"measurement": "radiochemical purity (HPLC)", "setting": "solution of Example 2-13 (82.5 nmol cysteine + 82.5 nmol VB1), pH 7, 2 hr", "result": 100, "unit": "%"}, {"measurement": "radiochemical purity (HPLC)", "setting": "solution of Example 2-13 (82.5 nmol cysteine + 82.5 nmol VB1), pH 7, 4 hr", "result": 94.88, "unit": "%"}, {"measurement": "radiochemical purity (HPLC)", "setting": "solution of Example 2-13 (82.5 nmol cysteine + 82.5 nmol VB1), pH 8.5, 0 hr", "result": 100, "unit": "%"}, {"measurement": "radiochemical purity (HPLC)", "setting": "solution of Example 2-13 (82.5 nmol cysteine + 82.5 nmol VB1), pH 8.5, 2 hr", "result": 94.13, "unit": "%"}, {"measurement": "radiochemical purity (HPLC)", "setting": "solution of Example 2-13 (82.5 nmol cysteine + 82.5 nmol VB1), pH 8.5, 4 hr", "result": 90.17, "unit": "%"}]}
